The source of these data is patent publication US20260265244A1, “HETEROCYCLIC COMPOUNDS AS STING ANTAGONISTS” (Boehringer Ingelheim International GmbH, priority 2022, published 2026).

The subject of this assay is STING inhibition in human whole blood (IFNα2α production). Briefly: Human whole blood assay (HWBA): cGAMP-stimulated IFNα2α production. The class given is cell-based. The conditions noted are these: Homo sapiens. A digest of the protocol:
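Na-citrate human whole blood from ≥3 healthy donors, preincubated 60 min at room temperature with compound (8 concentrations, top 10 μM, ~1:5 steps, 0.1% DMSO), then stimulated with cGAMP and incubated 22 h at 37 °C. Plasma IFNα2α measured by MSD immunoassay; % control versus stimulated/unstimulated wells, IC50 by 4-parameter logistic fit.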

pIC50: −log10 of the molar value.

The pIC50 is the IC50 on a negative log10 scale, so that one unit is a factor of ten. Low readings indicate a large IC50, high ones a small IC50. Turning to `CNCc1nc2nn(C)cc2cc1-n1nc(-c2cccc3nn(C[C@H](O)c4ccccc4)cc23)c(C(C)C)c1C` [Example 42, (1R)-2-[4-(5-methyl-1-{2-methyl-6-[(methylamino)methyl]-2H-pyrazolo[3,4-b]pyridin-5-yl}-4-(propan-2-yl)-1H-pyrazol-3-yl)-2H-indazol-2-yl]-1-phenylethan-1-ol], the pIC50 was 6.85.
`Cc1nc2nn(CCN3CCOCC3)cc2cc1-n1nc(-c2cccc3nn(C[C@H](O)c4ccccc4)cc23)c(C(C)C)c1C` [Example 1, (1R)-2-[4-(5-methyl-1-{6-methyl-2-[2-(morpholin-4-yl)ethyl]-2H-pyrazolo[3,4-b]pyridin-5-yl}-4-(propan-2-yl)-1H-pyrazol-3-yl)-2H-indazol-2-yl]-1-phenylethan-1-ol]: the negative-log IC50 (pIC50) is 7.14.
Compound `Cc1nc2nn(CCO)cc2cc1-n1nc(-c2cccc3nn(C[C@H](O)c4ccccc4)cc23)c(C(C)C)c1C` [Example 37, (1R)-2-(4-{1-[2-(2-hydroxyethyl)-6-methyl-2H-pyrazolo[3,4-b]pyridin-5-yl]-5-methyl-4-(propan-2-yl)-1H-pyrazol-3-yl}-2H-indazol-2-yl)-1-phenylethan-1-ol] showed a negative-log IC50 (pIC50) of 6.89.
In turn, `Cc1nc2nn(C)cc2cc1-n1nc(-c2cccc3nn(C[C@H](OCCO)c4ccccc4)cc23)c(C(C)C)c1C` [Example 8, 2-[(1R)-2-[4-(1-{2,6-dimethyl-2H-pyrazolo[3,4-b]pyridin-5-yl}-5-methyl-4-(propan-2-yl)-1H-pyrazol-3-yl)-2H-indazol-2-yl]-1-phenylethoxy]ethan-1-ol] gave a negative-log IC50 (pIC50) of 7.21.
Turning to `Cc1nc2nn(CCCCN3CCN(C)CC3)cc2cc1-n1nc(-c2cccc3nn(C[C@H](O)c4ccccc4)cc23)c(C(C)C)c1C` [Example 45, (1R)-2-[4-(5-methyl-1-{6-methyl-2-[4-(4-methylpiperazin-1-yl)butyl]-2H-pyrazolo[3,4-b]pyridin-5-yl}-4-(propan-2-yl)-1H-pyrazol-3-yl)-2H-indazol-2-yl]-1-phenylethan-1-ol], the pIC50 is 6.85.
As for `Cn1cc2cc(-c3nc(-c4cccc5nn(C[C@H](O)c6ccc(OCCC(C)(C)O)cc6)cc45)c(C4CC4)n3C)c(C3CC3)nc2n1` [Example 41, 4-{4-[(1R)-2-[4-(5-cyclopropyl-2-{6-cyclopropyl-2-methyl-2H-pyrazolo[3,4-b]pyridin-5-yl}-1-methyl-1H-imidazol-4-yl)-2H-indazol-2-yl]-1-hydroxyethyl]phenoxy}-2-methylbutan-2-ol], the pIC50 is 6.85.
Consider `Cc1nc2nn(C)cc2cc1-n1nc(-c2cccc3nn(CCc4ccc(OCCN(C)C)cc4)cc23)c(C(C)C)c1C` [Example 65, [2-(4-{2-[4-(1-{2,6-dimethyl-2H-pyrazolo[3,4-b]pyridin-5-yl}-5-methyl-4-(propan-2-yl)-1H-pyrazol-3-yl)-2H-indazol-2-yl]ethyl}phenoxy)ethyl]dimethylamine], for which the pIC50 is 6.49.
As for `Cc1nc2nn(CC(F)F)cc2cc1-n1nc(-c2cccc3nn(C[C@H](O)c4ccccc4)cc23)c(C(C)C)c1C` [Example 103, (1R)-2-(4-{1-[2-(2,2-difluoroethyl)-6-methyl-2H-pyrazolo[3,4-b]pyridin-5-yl]-5-methyl-4-(propan-2-yl)-1H-pyrazol-3-yl}-2H-indazol-2-yl)-1-phenylethan-1-ol], the pIC50 is 7.36.
For the compound `Cc1c(C2CC2)c(-c2c(F)ccc3nn(C[C@H](O)c4ccccc4)cc23)nn1-c1cc2cn(C)nc2nc1C1CC1` [Example 35, (1R)-2-[4-(4-cyclopropyl-1-{6-cyclopropyl-2-methyl-2H-pyrazolo[3,4-b]pyridin-5-yl}-5-methyl-1H-pyrazol-3-yl)-5-fluoro-2H-indazol-2-yl]-1-phenylethan-1-ol], the pIC50 was 6.89.
`Cc1nc2nn(C(C)C)cc2cc1-n1nc(-c2cccc3nn(C[C@H](O)c4ccccc4)cc23)c(C(C)C)c1C` [Example 18, (1R)-2-(4-{5-methyl-1-[6-methyl-2-(propan-2-yl)-2H-pyrazolo[3,4-b]pyridin-5-yl]-4-(propan-2-yl)-1H-pyrazol-3-yl}-2H-indazol-2-yl)-1-phenylethan-1-ol] had a pIC50 of 7.09.
`CNC(=O)CO[C@@H](Cn1cc2c(-c3nn(-c4cc5cn(C)nc5nc4C)c(C)c3C(C)C)cccc2n1)c1ccccc1` [Example 36, 2-[(1R)-2-[4-(1-{2,6-dimethyl-2H-pyrazolo[3,4-b]pyridin-5-yl)-5-methyl-4-(propan-2-yl)-1H-pyrazol-3-yl)-2H-indazol-2-yl]-1-phenylethoxy]-N-methylacetamide] showed a negative logarithm of the IC50 (pIC50) of 6.89.
To `Cc1c(C(C)C)c(-c2cccc3nn(C[C@H](O)c4ccccc4)cc23)nn1-c1cc2cn(C)nc2nc1C1CCCN1` (stereo partly drawn) [Example 111, (1R)-2-(4-{5-Methyl-1-[2-methyl-6-(pyrrolidin-2-yl)-2H-pyrazolo[3,4-b]pyridin-5-yl]-4-(propan-2-yl)-1H-pyrazol-3-yl}-2H-indazol-2-yl)-1-phenylethan-1-ol] belongs 6.12; to `CO[C@@H](Cn1cc2c(-c3nn(-c4cc5cn(C)nc5nc4C)c(C)c3C(C)C)cccc2n1)c1ccccc1` [Example 52, 4-(1-{2,6-dimethyl-2H-pyrazolo[3,4-b]pyridin-5-yl}-5-methyl-4-(propan-2-yl)-1H-pyrazol-3-yl)-2-[(2R)-2-methoxy-2-phenylethyl]-2H-indazole], 6.74; to `Cc1c(C(C)C)c(-c2cccc3nn(C[C@H](O)c4ccccc4)cc23)nn1-c1cc2cn(C)nc2nc1CN1CCOCC1` [Example 26, (1R)-2-[4-(5-methyl-1-{2-methyl-6-[(morpholin-4-yl)methyl]-2H-pyrazolo[3,4-b]pyridin-5-yl}-4-(propan-2-yl)-1H-pyrazol-3-yl)-2H-indazol-2-yl]-1-phenylethan-1-ol], 6.96.
On to `CC(C)c1nc2nn(C)cc2cc1-c1nc(-c2cccc3nn(CS(=O)(=O)c4ccccc4)cc23)c(C2CC2)n1C` [Example 96, 2-[(Benzenesulfonyl)methyl]-4-{5-cyclopropyl-1-methyl-2-[2-methyl-6-(propan-2-yl)-2H-pyrazolo[3,4-b]pyridin-5-yl]-1H-imidazol-4-yl}-2H-indazole], for which the pIC50 is 5.54.
`COC(C)c1nc2nn(C)cc2cc1-n1nc(-c2cccc3nn(C[C@H](O)c4ccccc4)cc23)c(C(C)C)c1C` (stereo partly drawn) [Example 58, (1R)-2-(4-{1-[6-(1-methoxyethyl)-2-methyl-2H-pyrazolo[3,4-b]pyridin-5-yl]-5-methyl-4-(propan-2-yl)-1H-pyrazol-3-yl}-2H-indazol-2-yl)-1-phenylethan-1-ol] gave a negative logarithm of the IC50 (pIC50) of 6.64.
Compound `Cc1nc2nn(CCCN3CCN(C)CC3)cc2cc1-n1nc(-c2cccc3nn(C[C@H](O)c4ccccc4)cc23)c(C(C)C)c1C` [Example 7, (1R)-2-[4-(5-methyl-1-{6-methyl-2-[3-(4-methylpiperazin-1-yl)propyl]-2H-pyrazolo[3,4-b]pyridin-5-yl}-4-(propan-2-yl)-1H-pyrazol-3-yl)-2H-indazol-2-yl]-1-phenylethan-1-ol] gave a pIC50 of 7.21.
On to `CCc1nc2nn(C)cc2cc1-c1nc(-c2cccc3nn(C[C@H](F)c4ccccc4)cc23)c(C2CC2)n1C` [Example 107, 4-(5-cyclopropyl-2-{6-ethyl-2-methyl-2H-pyrazolo[3,4-b]pyridin-5-yl}-1-methyl-1H-imidazol-4-yl)-2-[(2R)-2-fluoro-2-phenylethyl]-2H-indazole], for which the negative-log IC50 (pIC50) is 7.51.
Then `Cc1nc2nn(CC(O)CN3CCN(C)CC3)cc2cc1-n1nc(-c2cccc3nn(C[C@H](O)c4ccccc4)cc23)c(C(C)C)c1C` (stereo partly drawn) [Example 70, 1-[5-(3-{2-[(2R)-2-hydroxy-2-phenylethyl]-2H-indazol-4-yl}-5-methyl-4-(propan-2-yl)-1H-pyrazol-1-yl)-6-methyl-2H-pyrazolo[3,4-b]pyridin-2-yl]-3-(4-methylpiperazin-1-yl)propan-2-ol], with 6.43; and `CC(C)c1c(-c2cccc3nn(C[C@H](O)c4ccccc4)cc23)nc(-c2cc3cn(C)nc3cc2OC(F)(F)F)n1C` [Example 109, (1R)-2-(4-{1-methyl-2-[2-methyl-6-(trifluoromethoxy)-2H-indazol-5-yl]-5-(propan-2-yl)-1H-imidazol-4-yl}-2H-indazol-2-yl)-1-phenylethan-1-ol], with 7.11.
Consider `Cc1nc2nn(Cc3cnn(C)c3)cc2cc1-n1nc(-c2cccc3nn(C[C@H](O)c4ccccc4)cc23)c(C(C)C)c1C` [Example 24, (1R)-2-[4-(5-methyl-1-{6-methyl-2-[(1-methyl-1H-pyrazol-4-yl)methyl]-2H-pyrazolo[3,4-b]pyridin-5-yl}-4-(propan-2-yl)-1H-pyrazol-3-yl)-2H-indazol-2-yl]-1-phenylethan-1-ol], for which the negative logarithm of the IC50 (pIC50) is 7.04.
Then `Cc1nc2nn(CC3CC3)cc2cc1-n1nc(-c2cccc3nn(C[C@H](O)c4ccccc4)cc23)c(C(C)C)c1C` [Example 56, (1R)-2-(4-{1-[2-(cyclopropylmethyl)-6-methyl-2H-pyrazolo[3,4-b]pyridin-5-yl]-5-methyl-4-(propan-2-yl)-1H-pyrazol-3-yl}-2H-indazol-2-yl)-1-phenylethan-1-ol], with 6.68; and `Cc1nc2nn(C)cc2cc1-n1nc(-c2cccc3nn(C[C@H](OCF)c4ccccc4)cc23)c(C(C)C)c1C` [Example 27, 4-(1-{2,6-dimethyl-2H-pyrazolo[3,4-b]pyridin-5-yl}-5-methyl-4-(propan-2-yl)-1H-pyrazol-3-yl)-2-[(2R)-2-(fluoromethoxy)-2-phenylethyl]-2H-indazole], with 6.96; and `Cc1nc2nn(Cc3cccnc3)cc2cc1-n1nc(-c2cccc3nn(C[C@H](O)c4ccccc4)cc23)c(C(C)C)c1C` [Example 6, (1R)-2-[4-(5-methyl-1-{6-methyl-2-[(pyridin-3-yl)methyl]-2H-pyrazolo[3,4-b]pyridin-5-yl}-4-(propan-2-yl)-1H-pyrazol-3-yl)-2H-indazol-2-yl]-1-phenylethan-1-ol], with 7.21.
